# Patent US9957271B2, “Substituted bicyclic aza-heterocycles and analogues as sirtuin modulators” (GlaxoSmithKline, LLC, priority 2012, dated 2018)
# Read-outs that look alike come from different tables or passages of the source.
# Target: T1, SIRT1 (Homo sapiens, UniProt Q96EB6)
# T1 sequence (Q96EB6 1-747): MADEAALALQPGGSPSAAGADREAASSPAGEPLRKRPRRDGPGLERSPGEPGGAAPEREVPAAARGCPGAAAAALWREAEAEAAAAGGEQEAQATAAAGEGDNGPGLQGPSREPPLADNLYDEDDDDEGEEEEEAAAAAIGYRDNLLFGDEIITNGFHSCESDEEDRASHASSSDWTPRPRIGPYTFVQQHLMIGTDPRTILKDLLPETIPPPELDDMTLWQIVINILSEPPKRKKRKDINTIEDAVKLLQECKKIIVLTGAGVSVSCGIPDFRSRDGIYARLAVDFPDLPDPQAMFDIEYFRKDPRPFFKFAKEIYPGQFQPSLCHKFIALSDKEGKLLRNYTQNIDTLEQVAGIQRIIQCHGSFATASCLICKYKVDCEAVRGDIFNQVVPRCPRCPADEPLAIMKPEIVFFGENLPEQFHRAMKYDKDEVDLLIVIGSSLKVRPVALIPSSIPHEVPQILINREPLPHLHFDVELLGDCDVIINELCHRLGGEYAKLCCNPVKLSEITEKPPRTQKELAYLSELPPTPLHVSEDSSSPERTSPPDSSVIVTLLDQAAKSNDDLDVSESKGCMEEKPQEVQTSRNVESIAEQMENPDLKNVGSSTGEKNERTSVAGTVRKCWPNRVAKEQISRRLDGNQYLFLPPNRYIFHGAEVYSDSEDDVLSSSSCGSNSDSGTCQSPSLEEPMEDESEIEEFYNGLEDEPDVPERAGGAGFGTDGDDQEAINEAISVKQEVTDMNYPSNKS
# Experiment: Trp mass spectrometry assay of SIRT1 activity
# Type: biochemical
# Settings: for Trp EC1.5 (μM): concentration giving 150% activation of SIRT1; for Emax: read-out: Trp % Fold Act
# Excerpt: Mass spectrometry based assays were used to identify modulators of SIRT1 activity. The TAMRA based assay utilized a peptide having 20 amino acid residues as follows: Ac-EE-K(biotin)-[…](Ac)NleSTEG-K(5TMR)-EE-NH2 (SEQ ID NO: 1), wherein K(Ac) is an acetylated lysine residue and Nle is a norleucine. The peptide was labeled with the fluorophore 5TMR (excitation 540 nm/emission 580 nm) at the C-terminus. The sequence of the peptide substrate was based on p53 with several modifications. In addition, the methionine residue naturally present in the sequence was replaced with the norleucine because the methionine may be susceptible to oxidation during synthesis and purification. The Trp based assay utilized a peptide having an amino acid residues as follows: Ac-R-H-K-K(Ac)-W-NH2 (SEQ ID NO: 2).
# The Trp mass spectrometry assay was conducted as follows. 0.5 μM peptide substrate and 120 μM βNAD^+ were incubated with 10 nM SIRT1 for 25 minutes at 25° C. in a reaction buffer (50 mM HEPES pH 7.5, […], 1 mM DTT, 0.05% BSA). The SIRT1 protein was obtained by cloning the SirT1 gene into a T7-promoter containing vector, which was then expressed in BL21(DE3) bacterial cells and purified as described in further detail below. Test compound was added at varying concentrations to this reaction mixture and the resulting reactions were monitored. After the 25 minute incubation with SIRT1, 10 μL of 10% formic acid was added to stop the reaction. The resulting reactions were sealed and frozen for later mass spec analysis. The relative SIRT1 activity was then determined by measuring the amount of O-acetyl-ADP-ribose (OAADPR) formed (or, alternatively, the amount of deacetylated Trp peptide generated) by the NAD-dependent sirtuin deacetylation reaction in the presence of varying concentrations of the test compound versus control reactions lacking the test compound. The degree to which the test agent activated deacetylation by SIRT1 was expressed as EC1.5 (i.e., the concentration of compound required to increase SIRT1 activity by 50% over the control lacking test compound), and Percent Maximum Activation (i.e., the maximum activity relative to control (100%) obtained for the test compound).
# A control for inhibition of sirtuin activity was conducted by adding 1 μL of 500 mM nicotinamide as a negative control at the start of the reaction (e.g., permits determination of maximum sirtuin inhibition). A control for activation of sirtuin activity was conducted using 10 nM of sirtuin protein, with 1 μL of DMSO in place of compound, to determine the amount of deacetylation of the substrate at a given time point within the linear range of the assay. This time point was the same as that used for test compounds and, within the linear range, the endpoint represents a change in velocity.
# For the above assay, SIRT1 protein was expressed and purified as follows. The SirT1 gene was cloned into a T7-promoter containing vector and transformed into BL21(DE3). The protein was expressed by induction with 1 mM IPTG as an N-terminal His-tag fusion protein at 18° C. overnight and harvested at 30,000×g. Cells were lysed with lysozyme in lysis buffer (50 mM Tris-HCl, 2 mM Tris[2-carboxyethyl]phosphine (TCEP), 10 μM ZnCl2, 200 mM NaCl) and further treated with sonication for […] for complete lysis. The protein was purified over a Ni-NTA column (Amersham) and fractions containing pure protein were pooled, concentrated and run over a sizing column (Sephadex S200 26/60 global). The peak containing soluble protein was collected and run on an Ion-exchange column (MonoQ). Gradient elution (200 mM-500 mM NaCl) yielded pure protein. This protein was concentrated and dialyzed against dialysis buffer (20 mM Tris-HCl, 2 mM TCEP) overnight. The protein was aliquoted and frozen at −80° C. until further use.
# [1] = Trp assay, percent maximum fold activation
# [2] = percent maximum fold activation of SIRT1, Trp peptide substrate
compound,measurement,setting,value
Cc1cc(NC(=O)c2c(C)nc3c(OC[C@H](O)CO)cc(-c4ccccc4C(F)(F)F)nn23)cc(C)n1 [Compound 860],Trp EC1.5 (μM),Trp assay,A (EC1.5<1 μM)
same,Emax,[1],≥ 350%
O=C(Nc1cnc2c(c1)COCC2)c1cnc2ccc(N3CCCC3C(F)(F)F)nn12 (stereo not drawn) [Compound 1095],Emax,[2],≥ 350%
CN(C)c1ccnc(NC(=O)c2cnc3ccc(N4CC[C@H](F)C4)nn23)n1 [Compound 923],Trp EC1.5 (μM),Trp assay,A (EC1.5<1 μM)
same,Emax,[1],≥ 350%
O=C(Nc1cccnc1)c1cnc2ccc(N3CC(F)(F)C3)nn12 [Compound 913],Trp EC1.5 (μM),Trp assay,B (EC1.5 1-25 μM)
same,Emax,[1],< 350%
O=C(Nc1cccc(-c2cnco2)n1)c1cnn2ccc(N3CCC(C(F)(F)F)CC3)nc12 [Compound 1083],Emax,[2],≥ 350%
O=C(Nc1cncc(F)c1)c1cnn2ccc(N3CCC(C(F)(F)F)C3)nc12 (stereo not drawn) [Compound 1013],Emax,[2],≥ 350%
CN(C)[C@H]1CCN(c2ccc3ncc(C(=O)Nc4ccccn4)n3n2)C1 [Compound 866],Trp EC1.5 (μM),Trp assay,B (EC1.5 1-25 μM)
same,Emax,[1],≥ 350%
CO[C@H]1CCN(c2ccc3ncc(C(=O)Nc4ccccn4)n3n2)C1 [Compound 933],Trp EC1.5 (μM),Trp assay,B (EC1.5 1-25 μM)
same,Emax,[1],< 350%
COc1cc(NC(=O)c2cnc3ccc(N4CC[C@H](F)C4)nn23)ncn1 [Compound 922],Trp EC1.5 (μM),Trp assay,C (EC1.5>25 μM)
same,Emax,[1],< 350%
Cc1nc2ccc(N3CCC[C@H]3C(F)(F)F)nn2c1C(=O)Nc1cccnn1 [Compound 1018],Emax,[2],≥ 350%
Cc1cc(NC(=O)c2cnc3ccc(-c4cccc(OC[C@H](O)CO)c4)nn23)ccn1 [Compound 875],Trp EC1.5 (μM),Trp assay,C (EC1.5>25 μM)
same,Emax,[1],< 350%
O=C(Nc1ccccn1)c1cnc2ccc(N3CC[C@H](F)C3)nn12 [Compound 836],Trp EC1.5 (μM),Trp assay,B (EC1.5 1-25 μM)
same,Emax,[1],≥ 350%
O=C(Nc1cncc(F)c1)c1cnc2ccc(N3CCCC(C(F)(F)F)C3)nn12 (stereo not drawn) [Compound 910],Trp EC1.5 (μM),Trp assay,A (EC1.5<1 μM)
same,Emax,[1],≥ 350%
O=C(Nc1cccnn1)c1cnn2ccc(N3CCCC3C(F)(F)F)nc12 (stereo not drawn) [Compound 1022],Emax,[2],≥ 350%
O=C(Nc1cccnn1)c1cnn2ccc(N3CCCC(C(F)(F)F)C3)nc12 (stereo not drawn) [Compound 1023],Emax,[2],≥ 350%
O=C(Nc1cccnc1)c1cnc2ccc(N3CC[C@H](F)C3)nn12 [Compound 837],Trp EC1.5 (μM),Trp assay,B (EC1.5 1-25 μM)
same,Emax,[1],< 350%
O=C(Nc1ccccn1)c1cnc2ccc(-c3cccc(OC[C@H](O)CO)c3)nn12 [Compound 847],Trp EC1.5 (μM),Trp assay,A (EC1.5<1 μM)
same,Emax,[1],≥ 350%
O=C(Nc1cccnn1)c1cnn2ccc(N3CCC[C@@H]3C(F)(F)F)nc12 [Compound 1079],Emax,[2],≥ 350%
CC1(C)CCN(c2ccc3ncc(C(=O)Nc4ccncn4)n3n2)C1 [Compound 972],Emax,[1],< 350%
O=C(Nc1ccncn1)c1cnc2ccc(N3CCC(F)(F)C3)nn12 [Compound 906],Trp EC1.5 (μM),Trp assay,B (EC1.5 1-25 μM)
same,Emax,[1],< 350%
CC1CCN(c2ccc3ncc(C(=O)Nc4cccnn4)n3n2)C1 (stereo not drawn) [Compound 978],Emax,[1],≥ 350%
O=C(Nc1cccnn1)c1cnc2ccc(N3CCC(F)(F)CC3)nn12 [Compound 930],Trp EC1.5 (μM),Trp assay,B (EC1.5 1-25 μM)
same,Emax,[1],≥ 350%
Cc1nc2ccc(N3CC[C@H](F)C3)nn2c1C(=O)Nc1ncccn1 [Compound 852],Trp EC1.5 (μM),Trp assay,B (EC1.5 1-25 μM)
same,Emax,[1],≥ 350%
Cc1nn2ccc(N3CCC[C@H]3C(F)(F)F)nc2c1C(=O)Nc1ccccn1 [Compound 1035],Emax,[2],≥ 350%
O=C(Nc1cncc(F)c1)c1cnc2ccc(N3CC[C@H](F)C3)nn12 [Compound 890],Trp EC1.5 (μM),Trp assay,B (EC1.5 1-25 μM)
same,Emax,[1],< 350%
O=C(Nc1ccccn1)c1cnn2ccc(N3CCC[C@@H]3C(F)(F)F)nc12 [Compound 1090],Emax,[2],< 350%
CC1(C)CCN(c2ccc3ncc(C(=O)Nc4ccc(F)cn4)n3n2)C1 [Compound 954],Emax,[1],< 350%
Cc1cc(NC(=O)c2c(C)nc3c(OC[C@H](O)CO)cc(-c4ccccc4C(F)(F)F)nn23)nc(C)n1 [Compound 850],Trp EC1.5 (μM),Trp assay,A (EC1.5<1 μM)
same,Emax,[1],≥ 350%
O=C(Nc1cccnn1)c1cnc2ccc(N3CCC[C@H](F)C3)nn12 [Compound 989],Emax,[1],≥ 350%
CC1CCN(c2ccc3ncc(C(=O)Nc4ccc(F)cn4)n3n2)C1 (stereo not drawn) [Compound 977],Emax,[1],< 350%
O=C(Nc1cccnc1)c1cnn2ccc(N3CCC[C@@H]3C(F)(F)F)nc12 [Compound 1076],Emax,[2],≥ 350%
CN(C)[C@H]1CCN(c2ccc3ncc(C(=O)Nc4ccncn4)n3n2)C1 [Compound 882],Trp EC1.5 (μM),Trp assay,B (EC1.5 1-25 μM)
same,Emax,[1],< 350%
CN1CCN(c2ccc3ncc(C(=O)Nc4cccnc4)n3n2)CC1 [Compound 946],Trp EC1.5 (μM),Trp assay,C (EC1.5>25 μM)
same,Emax,[1],< 350%
Cc1nc2ccc(N3CC[C@H](F)C3)nn2c1C(=O)Nc1ccncc1F [Compound 846],Trp EC1.5 (μM),Trp assay,A (EC1.5<1 μM)
same,Emax,[1],< 350%
Cc1nn2ccc(N3CCC[C@@H]3C(F)(F)F)nc2c1C(=O)Nc1ccncn1 [Compound 1068],Emax,[2],≥ 350%
Cc1nn2ccc(N3CCC[C@H]3C(F)(F)F)nc2c1C(=O)Nc1cncc(F)c1 [Compound 1050],Emax,[2],≥ 350%
Cc1cncc(NC(=O)c2cnn3ccc(N4CCCC4C)nc23)c1 (stereo not drawn) [Compound 1045],Emax,[2],< 350%
CC1CCCN1c1ccn2ncc(C(=O)Nc3cnccn3)c2n1 (stereo not drawn) [Compound 1041],Emax,[2],< 350%
O=C(Nc1cccnc1)c1cnc2ccc(-c3cccc(OC[C@H](O)CO)c3)nn12 [Compound 858],Trp EC1.5 (μM),Trp assay,B (EC1.5 1-25 μM)
same,Emax,[1],< 350%
Cc1nc2ccc(N3CC[C@H](F)C3)nn2c1C(=O)Nc1cccnn1 [Compound 857],Trp EC1.5 (μM),Trp assay,A (EC1.5<1 μM)
same,Emax,[1],≥ 350%
O=C(Nc1ccccn1)c1cnn2ccc(N3CCCCC3C(F)(F)F)nc12 (stereo not drawn) [Compound 957],Emax,[1],≥ 350%
Cc1cncc(NC(=O)c2cnn3ccc(N4CCC[C@@H]4C(F)(F)F)nc23)c1 [Compound 1077],Emax,[2],≥ 350%
Cc1nn2ccc(N3CCC[C@@H]3C(F)(F)F)nc2c1C(=O)Nc1cc(-c2cnco2)ccn1 [Compound 1087],Emax,[2],≥ 350%
Cc1nc2ccc(N3CC[C@H](N(C)C)C3)nn2c1C(=O)Nc1ccncn1 [Compound 881],Trp EC1.5 (μM),Trp assay,C (EC1.5>25 μM)
same,Emax,[1],< 350%
O=C(Nc1cccnc1)c1cnc2ccc(N3CCCC(C(F)(F)F)C3)nn12 (stereo not drawn) [Compound 932],Trp EC1.5 (μM),Trp assay,A (EC1.5<1 μM)
same,Emax,[1],≥ 350%
Cc1nc(NC(=O)c2c(C)nn3ccc(N4CCC[C@H]4C(F)(F)F)nc23)sc1C [Compound 1033],Emax,[2],≥ 350%
